The target in one assay is T1, serotonin (5HT) uptake (Rattus norvegicus, UniProt P31652).
T1 construct: Crude synaptosomal preparations were isolated after differential centrifugation; from tissue; host or cells: rat cerebral cortex, crude synaptosomes
In words: Inhibition of synaptosomal uptake of 3H-serotonin in vitro. It is filed as biochemical, rats. Particulars: for inhibition at 1 µM: 1000 nM test compound, number in parentheses, read-out: percent inhibition at 1000 nM (5HT). How it is done:
(§1) This general procedure is set forth by Wong et al., in Drug Development Research 6:397-403 (1985).
(§2) Male Sprague-Dawley rats (110-150 g) from Harlan Industries (Cumberland, IN) were fed a Purina Chow ad libitum for at least 3 days before being used in the studies. Rats were killed by decapitation. Whole brains were removed and dissected. Cerebral cortex was homogenized in 9 volumes of a medium containing 0.32 M sucrose and 10 mM glucose. Crude synaptosomal preparations were isolated after differential centrifugation at 1,000 g for 10 min. and 17,000 g for 28 min. The final pellets were suspended in the same medium and kept in ice until use within the same day.
(§3) Synaptosomal uptake of ³H-serotonin(³H-5-hydroxytryptamine, ³H-5HT) and ¹⁴C-ℓ-norepinephrine (¹⁴C-NE) was determined as follows. Cortical synaptosomes (equivalent to 1 mg of protein) were incubated at 37°C for 5 min in 1 ml of Krebs-bicarbonate medium containing also 10 mM glucose, 0.1 mM iproniazid, 1 mM ascorbic acid, 0.17 mM EDTA, 50nM, ³H-5HT and 100 nM ¹⁴C-NE. The reaction mixture was immediately diluted with 2 ml of ice-chilled Krebs-bicarbonate buffer and filtered under vacuum with a cell harvester (Brandel, Gaithersburg, MD). Filters were rinsed twice with approximately 5 ml of ice-chilled 0.9% saline and were transferred to a counting vial containing 10 ml of scintillation fluid (PCS, Amersham, Arlington Heights, IL). Radioactivity was measured by a liquid scintillation spectrophotometer. Accumulation of ³H-5HT and ¹⁴C-NE at 4°C represented the background and was subtracted from all samples.
(§4) The results of the evaluation of various compounds of the present invention are set forth below in Table I. In the Table, column 1 identifies the Example number of the compounds evaluated, and columns 2 and 3 provide the concentration of the test compound at 10⁻⁹M (nM) needed to inhibit 50% of serotonin (5HT) or norepinephrine, respectively, and is indicated in the Table as IC₅₀. The numbers in parentheses represent percent inhibition at 1000 nM.

Assay [1] has as its target T2, norepinephrine (NE) uptake (Rattus norvegicus, UniProt Q63380).
T2 construct: Crude synaptosomal preparations were isolated after differential centrifugation; from tissue; host or cells: rat cerebral cortex, crude synaptosomes
In words: Inhibition of synaptosomal uptake of 14C-l-norepinephrine in vitro. Particulars: for IC50: 100 nM ¹⁴C-NE, 37°C for 5 min, read-out: IC₅₀(nM) NE; for inhibition at 1 µM: read-out: percent inhibition at 1000 nM (NE). It is filed as biochemical, rats. The protocol:
as §1, §2, §3, §4

The mark [2] stands for this setting: rat cerebral cortex synaptosomes.
Where [3] appears, read: 1000 nM test compound, number in parentheses, rat cerebral cortex synaptosomes.

This note sets out measurements from patent EP0336753A1, “Improvements in or relating to propanamine derivatives” (ELI LILLY AND COMPANY, priority 1988, dated 1989).

Usually pIC50 stands for −log10 of the IC50, conventionally taken in molar units. Low values mean a high IC50, high ones a low IC50. The term inhibition denotes the percentage by which the read-out fell short of the control.

pIC50: −log10 of the molar value. Read-outs that look alike come from different tables or passages of the source.

T2 sequence (Q63380 1-617): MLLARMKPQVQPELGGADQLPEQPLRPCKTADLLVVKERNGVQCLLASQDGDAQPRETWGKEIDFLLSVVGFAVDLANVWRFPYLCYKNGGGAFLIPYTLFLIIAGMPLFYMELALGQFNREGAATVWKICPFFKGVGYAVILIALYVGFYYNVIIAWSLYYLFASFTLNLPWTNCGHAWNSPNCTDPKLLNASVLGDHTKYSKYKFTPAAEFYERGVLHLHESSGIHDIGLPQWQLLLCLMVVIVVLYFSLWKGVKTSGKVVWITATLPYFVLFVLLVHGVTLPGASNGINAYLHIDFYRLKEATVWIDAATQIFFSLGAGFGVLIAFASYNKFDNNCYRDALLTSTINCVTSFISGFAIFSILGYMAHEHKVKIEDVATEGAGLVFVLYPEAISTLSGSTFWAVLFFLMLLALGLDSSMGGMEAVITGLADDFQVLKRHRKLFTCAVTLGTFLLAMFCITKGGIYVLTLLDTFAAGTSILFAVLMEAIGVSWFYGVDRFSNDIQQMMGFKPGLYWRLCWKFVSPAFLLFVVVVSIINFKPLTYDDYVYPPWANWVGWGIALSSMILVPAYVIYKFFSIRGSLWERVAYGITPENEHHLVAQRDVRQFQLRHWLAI
T1 sequence (P31652 whole entry): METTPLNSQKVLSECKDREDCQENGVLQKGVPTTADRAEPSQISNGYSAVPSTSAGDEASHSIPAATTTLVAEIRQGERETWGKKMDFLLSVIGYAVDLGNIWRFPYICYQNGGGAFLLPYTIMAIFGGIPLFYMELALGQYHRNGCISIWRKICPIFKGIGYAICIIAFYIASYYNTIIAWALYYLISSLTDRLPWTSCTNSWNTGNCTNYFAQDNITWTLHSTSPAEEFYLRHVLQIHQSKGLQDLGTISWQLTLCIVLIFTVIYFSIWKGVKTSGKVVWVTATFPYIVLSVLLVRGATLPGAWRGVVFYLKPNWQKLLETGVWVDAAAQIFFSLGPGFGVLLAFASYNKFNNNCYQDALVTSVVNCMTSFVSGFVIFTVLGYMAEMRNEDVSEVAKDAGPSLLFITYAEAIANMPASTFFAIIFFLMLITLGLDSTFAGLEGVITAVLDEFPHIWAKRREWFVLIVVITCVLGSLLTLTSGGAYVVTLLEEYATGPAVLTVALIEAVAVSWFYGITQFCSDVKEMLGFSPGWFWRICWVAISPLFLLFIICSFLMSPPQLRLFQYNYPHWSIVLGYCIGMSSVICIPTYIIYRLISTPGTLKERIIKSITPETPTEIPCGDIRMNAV

Regarding `CSc1ccc(OC(CCN(C)C)c2ccccc2)cc1` (centres unmarked) [Example 1, N,N-Dimethyl-γ-[4-(methylthio)phenoxy]benzenepropanamine ethanedioate], at serotonin (5HT) uptake, the pIC50 is 6.80. In assay [1] (setting [2]), the IC50 is above 1000 nM. Further, in assay [1], the inhibition at 1 µM came out at 18%.

On serotonin (5HT) uptake, `CNCCC(Oc1ccc(SC)cc1)c1ccccc1` (centres unmarked) [Example 2, N-Methyl-γ-[4-(methylthio)phenoxy]benzenepropanamine ethanedioate] showed a pIC50 of 7.32. Besides, the IC50 in assay [1] (setting [2]) came to 704 nM.

In the case of `CNCCC(Oc1ccc(SC(F)(F)F)cc1)c1ccccc1` (centres unmarked) [Example 3, N-Methyl-γ-{4-[trifluoromethyl)thio]phenoxy}benzenepropanamine ethanedioate], the inhibition at 1 µM at serotonin (5HT) uptake (setting [2]) was 39%; in assay [1] (setting [3]) it was 9%. Further, the IC50 on serotonin (5HT) uptake (rat cerebral cortex synaptosomes, 50 nM ³H-5HT, 37°C for 5 min, read-out: IC₅₀(nM) 5HT) is above 1000 nM; in assay [1] (setting [2]), above 1000 nM.

On serotonin (5HT) uptake, `CN(C)CCC(Oc1ccc(S(N)(=O)=O)cc1)c1ccccc1` (centres unmarked) [Example 4, 4-[3-(Dimethylamino)-1-phenylpropoxy]benzenesulfonamide ethanedioate] showed a pIC50 below 6.00. The inhibition at 1 µM at serotonin (5HT) uptake (setting [2]) was 15%; in assay [1], 0%. Further, the IC50 in assay [1] (setting [2]) was above 1000 nM.

With `CN(C)CCC(Oc1ccc(NS(C)(=O)=O)cc1)c1ccccc1` (centres unmarked) [Example 5, N-{4-[1-Phenyl-3-(dimethylamino)propoxy]phenyl}methanesulfonamide], the pIC50 at serotonin (5HT) uptake was below 6.00. The inhibition at 1 µM worked out at 30% at serotonin (5HT) uptake (setting [2]) and 15% in assay [1] (setting [3]). In addition, the IC50 in assay [1] (setting [2]) is above 1000 nM.
